pIC50: −log10 of the molar value. Structures can show the parent of a compound that is named as a salt.
These compounds were tested against T1, recombinant human SYK360-635 (Homo sapiens, UniProt P43405) (assay: Determination of IC50 of Spleen Tyrosine Kinase (SYK) inhibition, 33P ATP filtration assay). Conditions: SYK aa 360-635 0.5 nM; ATP 20 μM, peptide 5 μM, 0.1% BSA; read-out: SYK_ENZYME_FILTRATION/v1, BSA.
T1 construct: made in house
Assay type: biochemical
Description: All concentrations were final in the reaction mixture and all incubations were carried at room temperature. […] SYK Assay Information Determination of IC50 of Spleen Tyrosine Kinase (SYK) Inhibition:
SYK kinase assay is a standard kinase assay adapted to a 96 well plate format. This assay is performed in 96-well format for IC50 determination with 8 samples which represented 10 half log dilutions and a 40 μL reaction volume. The assay measures the incorporation of radiolabeled ^33P γATP into an N-terminally biotinylated peptide substrate, derived from naturally occurring phosphoacceptor consensus sequence (Biotin-11aa DY*E). […] Experimental Method:
DMSO and the mixture was incubated for 10 min at RT.
The kinase reaction was initiated by the addition of 10 μL 4× substrate cocktail containing the DYE peptide substrate [0 or 5 μM], ATP [20 μM] and ^33PγATP [2 μCi/r×n]. After incubation at 30° C. for 15 min, the reaction was terminated by the transfer of 25 μL pf the reaction sample to a 96 well 0.65 μm Millipore MADVNOB membrane/plate containing 200 μL 5 mM EDTA and 20% Streptavidine coated beads in PBS.
The unbound radionucleotides were washed under vacuum with 3×250 μL 2M NaCl; 2×250 μL 2M NaCl+1% phosphoric acid; 1×250 μL H2O. After the last wash membrane/plates were transferred to an adaptor plate, heat dried for 15 min at 60° C., and 50 μL scintillation cocktail was added to each well and 4 h later the amount of radioactivity was counted in a top counter.

| SMILES | pIC50 |
| --- | --- |
| Cn1nc(-c2cnc3[nH]cc(C(=O)N[C@@H]4CCC[C@H](N)C4)c3n2)c2ccc(Cl)cc21 (relative stereo) [Example I-277, 2-(6-Chloro-1-methyl-1H-indazol-3-yl)-5H-pyrrolo[2,3-b]pyrazine-7-carboxylic acid (cis-3-amino-cyclohexyl)-amide] | 7.40 |
| Cn1nc(-c2cnc3[nH]cc(C(=O)NC4(C)CCC4)c3n2)c2ccc(F)cc21 [Example I-376, 2-(6-Fluoro-1-methyl-1H-indazol-3-yl)-5H-pyrrolo[2,3-b]pyrazine-7-carboxylic acid (1-methyl-cyclobutyl)-amide] | 8.55 |
| Cn1nc(-c2cnc3[nH]cc(C(=O)NC(C)(CO)CO)c3n2)c2ccc(F)cc21 [Example I-383, 2-(6-Fluoro-1-methyl-1H-indazol-3-yl)-5H-pyrrolo[2,3-b]pyrazine-7-carboxylic acid (2-hydroxy-1-hydroxymethyl-1-methyl-ethyl)-amide] | 8.09 |
| CCc1ccc2c(-c3cnc4[nH]cc(C(=O)NC(C)(C)C)c4n3)nn(C)c2c1 [Example I-367, 2-(6-Ethyl-1-methyl-1H-indazol-3-yl)-5H-pyrrolo[2,3-b]pyrazine-7-carboxylic acid tert-butylamide] | 8.32 |
| CNC(=O)Cn1nc(-c2cnc3[nH]cc(C(=O)NC(C)(C)C)c3n2)c2cc(OC(F)F)ccc21 [Example I-354, 2-(5-Difluoromethoxy-1-methylcarbamoylmethyl-1H-indazol-3-yl)-5H-pyrrolo[2,3-b]pyrazine-7-carboxylic acid tert-butylamide] | 7.84 |
| Cc1ccc2c(-c3cnc4[nH]cc(C(=O)NC(C)(C)CO)c4n3)nn(C)c2c1 [Example I-368, 2-(1,6-Dimethyl-1H-indazol-3-yl)-5H-pyrrolo[2,3-b]pyrazine-7-carboxylic acid (2-hydroxy-1,1-dimethyl-ethyl)-amide] | 8.05 |
| CC(C)(C)NC(=O)c1c[nH]c2ncc(-n3ncc4cc(OC(F)F)ccc43)nc12 [Example I-325, 2-(5-Difluoromethoxy-indazol-1-yl)-5H-pyrrolo[2,3-b]pyrazine-7-carboxylic acid tert-butylamide] | 7.43 |
| CC(C)(C)NC(=O)c1c[nH]c2ncc(-n3nc(Cl)c4ccccc43)nc12 [Example I-335, 2-(3-Chloro-indazol-1-yl)-5H-pyrrolo[2,3-b]pyrazine-7-carboxylic acid tert-butylamide] | 7.21 |
| Cn1nc(-c2cnc3[nH]cc(C(=O)NC(C)(C)C)c3n2)c2ccc(S(C)(=O)=O)cc21 [Example I-270, 2-(6-Methanesulfonyl-1-methyl-1H-indazol-3-yl)-5H-pyrrolo[2,3-b]pyrazine-7-carboxylic acid tert-butylamide] | 7.79 |
| CC(C)(C)NC(=O)c1c[nH]c2ncc(-c3nn(C4CCNCC4)c4ccc(OC(F)F)cc34)nc12 [Example I-261, 2-(5-Difluoromethoxy-1-piperidin-4-yl-1H-indazol-3-yl)-5H-pyrrolo[2,3-b]pyrazine-7-carboxylic acid tert-butylamide] | 8.74 |
| CC(C)(C)NC(=O)c1c[nH]c2ncc(-c3nn(CCCN4CC(O)C4)c4ccc(OC(F)F)cc34)nc12 [Example I-300, 2-{5-Difluoromethoxy-1-[3-(3-hydroxy-azetidin-1-yl)-propyl]-1H-indazol-3-yl}-5H-pyrrolo[2,3-b]pyrazine-7-carboxylic acid tert-butylamide] | 8.51 |
| CC(C)NC(=O)c1c[nH]c2ncc(-c3nn(Cc4ccccc4)c4cc(Cl)ccc34)nc12 [Example I-308, 2-(1-Benzyl-6-chloro-1H-indazol-3-yl)-5H-pyrrolo[2,3-b]pyrazine-7-carboxylic acid isopropylamide] | 6.07 |
| Cn1nc(-c2cnc3[nH]cc(C(=O)NC(C)(C)C)c3n2)c2c1CCCCC2 [Example I-272, 2-(1-Methyl-1,4,5,6,7,8-hexahydro-cycloheptapyrazol-3-yl)-5H-pyrrolo[2,3-b]pyrazine-7-carboxylic acid tert-butylamide] | 7.12 |
| C[C@H](NC(=O)c1c[nH]c2ncc(-c3nn(C)c4cc(F)ccc34)nc12)c1ncc(C(F)(F)F)[nH]1 [Example I-358, 2-(6-Fluoro-1-methyl-1H-indazol-3-yl)-5H-pyrrolo[2,3-b]pyrazine-7-carboxylic acid [(S)-1-(5-trifluoromethyl-1H-imidazol-2-yl)-ethyl]-amide] | 6.97 |
| CC(C)(CO)NC(=O)c1c[nH]c2ncc(-n3ncc4ccccc43)nc12 [Example I-321, 2-Indazol-1-yl-5H-pyrrolo[2,3-b]pyrazine-7-carboxylic acid (2-hydroxy-1,1-dimethyl-ethyl)-amide] | 6.82 |
| C[C@H](NC(=O)c1c[nH]c2ncc(-c3nn(C)c4cc(Cl)ccc34)nc12)c1ccccc1 [Example I-389, 2-(6-Chloro-1-methyl-1H-indazol-3-yl)-5H-pyrrolo[2,3-b]pyrazine-7 carboxylic acid ((S)-1-phenyl-ethyl)-amide] | 6.74 |
| Cn1nc(-c2cnc3[nH]cc(C(=O)NC(C)(C)C(=O)OC(C)(C)C)c3n2)c2ccc(F)cc21 [Example I-381, 2-{[2-(6-Fluoro-1-methyl-1H-indazol-3-yl)-5H-pyrrolo[2,3-b]pyrazine-7-carbonyl]-amino}-2-methyl-propionic acid tert-butyl ester] | 6.15 |
| CC(C)(C)NC(=O)c1c[nH]c2ncc(-n3nc(C(F)(F)F)c4c3CCC4)nc12 [Example I-334, 2-(3-Trifluoromethyl-5,6-dihydro-4H-cyclopentapyrazol-1-yl)-5H-pyrrolo[2,3-b]pyrazine-7-carboxylic acid tert-butylamide] | 5.74 |
| CC(C)(C)NC(=O)c1c[nH]c2ncc(-c3nn(CCC4CNC4)c4cc(F)ccc34)nc12 [Example I-302, 2-[1-(2-Azetidin-3-yl-ethyl)-6-fluoro-1H-indazol-3-yl]-5H-pyrrolo[2,3-b]pyrazine-7-carboxylic acid tert-butylamide] | 8.07 |
| CC(C)(CO)NC(=O)c1c[nH]c2ncc(-n3ncc4cc(F)ccc43)nc12 [Example I-320, 2-(5-Fluoro-indazol-1-yl)-5H-pyrrolo[2,3-b]pyrazine-7-carboxylic acid (2-hydroxy-1,1-dimethyl-ethyl)-amide] | 7.25 |

More lines, now with the values ahead:

| pIC50 | SMILES |
| --- | --- |
| 6.06 | Cn1nc(-c2cnc3[nH]cc(C(=O)NC4CCCC(NC(=O)OC(C)(C)C)C4)c3n2)c2ccc(Cl)cc21 (stereo not drawn) [Example I-442, (3-{[2-(6-Chloro-1-methyl-1H-indazol-3-yl)-5H-pyrrolo[2,3-b]pyrazine-7-carbonyl]-amino}-cyclohexyl)-carbamic acid tert-butyl ester] |
| 7.75 | CC(O)CCn1nc(-c2cnc3[nH]cc(C(=O)NC(C)(C)CO)c3n2)c2ccc(F)cc21 (stereo not drawn) [Example I-462, 2-(6-Fluoro-1-(3-hydroxybutyl)-1H-indazol-3-yl)-N-(1-hydroxy-2-methylpropan-2-yl)-5H-pyrrolo[3,2-b]pyrazine-7-carboxamide] |
| 8.34 | Cc1ccc2c(-c3cnc4[nH]cc(C(=O)NC(C)(C)CO)c4n3)n[nH]c2c1 [Example I-434, 2-(6-Methyl-1H-indazol-3-yl)-5H-pyrrolo[2,3-b]pyrazine-7-carboxylic acid (2-hydroxy-1,1-dimethyl-ethyl)-amide] |
| 7.73 | Cn1nc(-c2cnc3[nH]cc(C(=O)NC(C)(C)C4CC4)c3n2)c2ccc(Cl)cc21 [Example I-401, 2-(6-Chloro-1-methyl-1H-indazol-3-yl)-5H-pyrrolo[2,3-b]pyrazine-7-carboxylic acid (1-cyclopropyl-1-methyl-ethyl)-amide] |
| 6.18 | Cn1nc(-c2cnc3[nH]cc(C(=O)NC4(CN)CC4)c3n2)c2ccc(F)cc21 [Example I-443, 2-(6-Fluoro-1-methyl-1H-indazol-3-yl)-5H-pyrrolo[2,3-b]pyrazine-7-carboxylic acid (1-aminomethyl-cyclopropyl)-amide] |
| 7.02 | CC(C)(C)NC(=O)c1c[nH]c2ncc(-c3n[nH]c4cc(F)ccc34)nc12 [Example I-411, 2-(6-Fluoro-1H-indazol-3-yl)-5H-pyrrolo[2,3-b]pyrazine-7-carboxylic acid tert-butylamide] |
| 8.36 | Cn1nc(-c2cnc3[nH]cc(C(=O)NC(C)(C)C)c3n2)c2ccc(C#N)cc21 [Example I-394, 2-(6-Cyano-1-methyl-1H-indazol-3-yl)-5H-pyrrolo[2,3-b]pyrazine-7-carboxylic acid tert-butylamide] |
| 7.37 | Cn1nc(-c2cnc3[nH]cc(C(=O)NC(C)(C)C(F)(F)F)c3n2)c2ccc(Cl)cc21 [Example I-390, 2-(6-Chloro-1-methyl-1H-indazol-3-yl)-5H-pyrrolo[2,3-b]pyrazine-7-carboxylic acid (2,2,2-trifluoro-1,1-dimethyl-ethyl)-amide] |
| 7.90 | Cc1ccc2c(-c3cnc4[nH]cc(C(=O)NC5(CO)CC5)c4n3)nn(C)c2c1 [Example I-429, 2-(1,6-Dimethyl-1H-indazol-3-yl)-5H-pyrrolo[2,3-b]pyrazine-7-carboxylic acid (1-hydroxymethyl-cyclopropyl)-amide] |
| 6.50 | Cn1nc(-c2cnc3[nH]cc(C(=O)NC4(C)CNC4)c3n2)c2ccc(F)cc21 [Example I-409, 2-(6-Fluoro-1-methyl-1H-indazol-3-yl)-5H-pyrrolo[2,3-b]pyrazine-7-carboxylic acid (3-methyl-azetidin-3-yl)-amide] |
| 6.79 | CC(C)(C)NC(=O)c1c[nH]c2ncc(-c3cccc4cn[nH]c34)nc12 [Example I-421, 2-(1H-Indazol-7-yl)-5H-pyrrolo[2,3-b]pyrazine-7-carboxylic acid tert-butylamide] |
| 5.98 | CC(C)(C)NC(=O)c1c[nH]c2ncc(-c3cccc4ccncc34)nc12 [Example I-444, 2-Isoquinolin-8-yl-5H-pyrrolo[2,3-b]pyrazine-7-carboxylic acid tert-butylamide] |
| 8.32 | Cn1ncc2c(-c3cnc4[nH]cc(C(=O)NC(C)(C)C)c4n3)cccc21 [Example I-451, N-tert-Butyl-2-(1-methyl-1H-indazol-4-yl)-5H-pyrrolo[3,2-b]pyrazine-7-carboxamide hydrochloride] |

Reference: patent publication US8658646B2, “Pyrrolopyrazine kinase inhibitors” (Hoffmann-LaRoche Inc., priority 2011, dated 2014)
